The nature of this test: rat tail flick assay (nociceptive reaction latency). The note with it: ifenprodil IN 1 mg/rat + morphine IP 6 mg/kg, given 30 min before the test, Student's t test P<0.05 vs morphine group. The class given is in vivo. As to the method:
In FIG. 1, results are expressed as mean±sem for 6 experiments, which are (from left to right): vehicle, morphine (6 mg/kg), vehicle, ifenprodil (1 mg/rat), vehicle IN+vehicle IP, and ifenprodil IN (1 mg/rat)+morphine IP (6 mg/kg). • vehicle: 90% saline 10% propylene glycol • vehicle and morphine were given intraperitoneally 30 min. before the test • vehicle and ifenprodil were given intranasally 30 min. before the test • n=10 rats per group • student's T test: * indicates a significant difference in comparison to the vehicle group for P<0.05 • student's T test: † indicates a significant difference in comparison to the morphine group for P<0.05
A general note: Thermal pain tests record how soon the animal reacts.

Take `CC(C(O)c1ccc(O)cc1)N1CCC(Cc2ccccc2)CC1` (stereo not shown) [ifenprodil]: the “potentiation of morphine analgesia (nociceptive reaction latency)” value is given as “potentiates morphine when administered intranasally”.
